# Measurements as given in patent US20220274980A1, “PHARMACOLOGICAL INHIBITORS OF THE ENL YEATS DOMAIN” (priority 2019, published 2022).
# How the values were obtained:
# [1] = Half-life in human liver microsomes; format: in vitro ADME; conditions: read-out: t1/2 (min) human liver microsomes
# BRD4 bromodomain 1 (BD1) = molecular target: T1, BRD4 bromodomain 1 (BD1) (Homo sapiens, UniProt O60885); assay: BRD4 (BD1)-H4 tetra-acetylated HTRF histone-binding assay
# T1 construct: Selectivity against BRD4 bromodomain 1 (BD1), measured by HTRF; His; purchased Cayman 11720
# Method in brief: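 Recombinant BRD4 BD1 (10 nM) was combined with 13.3 nM biotinylated tetra-acetylated H4 peptide, Eu-anti-His antibody and APC-streptavidin in HEPES buffer, pH 7. Compound was pin-transferred and plates incubated ≥2 h before HTRF reading (665/620 nm ratio). Percent inhibition was normalised to vehicle (maximum) and no-peptide (minimum) wells.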
structure (smiles),measurement,setting,value
O=C(NC1CCC1)c1ccc2nc(-c3cccc(NS(=O)(=O)NCCN4CCCCC4)c3)cn2c1 [Compound 93],half-life,[1],22.6 min
same,IC50,BRD4 bromodomain 1 (BD1); Table 1,> 50 µM
same,IC50,BRD4 bromodomain 1 (BD1); Table 2,> 50 µM
